This note sets out measurements from patent US20240208972A1, “LRRK2 INHIBITORS AND USES THEREOF” (NEURON23, INC., priority 2022, published 2024).

Structures are written as SMILES.

The data set in a line: Brain penetration (Kp,uu) in CD-1 mice, with plasma and brain tissue binding by equilibrium dialysis. The note with it: mouse, brain and plasma (unbound), male CD-1 mice, single IV bolus 1 mg/kg. Type of data set: in vivo. Here is the method: The compounds disclosed herein were tested on CD-1 mice for brain penetration (Kp, uu) according to the following procedures.
Nine male CD-1 mice were administered TEST COMPOUND by single intravenous bolus administration at 1 mg/kg. The vehicle used for IV study was 5% DMSO, 5% solutol, 20% PEG300 and 70% water. The detailed dosing and sampling regimens are described in the following tables.
1.0 mg of test compound was accurately weighed into a glass vial, and slowly added with 104 μL of DMSO and vortexed for 1 min. Then 104 μL of solutol was added and vortexed for 1 min. Then 415 μL of PEG300 was added and vortexed for 1 min. Then 1000 μL of water was added and vortexed for 1 min. Finally, 451 μL of water was added and vortexed for 1 min to get a clear solution.
The body weights were in the range from 28.81 to 31.25 g for males on the first dosing day. All animals received a single intravenous bolus administration of TEST COMPOUND from the tail vein.
Each blood collection (about 0.06 mL per time point) was performed from saphenous vein of each animal into pre-chilled commercial K2-EDTA tubes as anti-coagulant and placed on wet ice until centrifugation.
Plasma samples were then prepared by centrifuging the blood samples at approximately 4° C., 3200×g for 10 minutes. All plasma samples were then quickly frozen over dry ice and kept at −60° C. or lower until LC-MS/MS analysis.
Brain tissue was homogenized using homogenizing buffer (15 mM PBS (pH7.4): MeOH=2:1) at the ratio of 1:9 (1 g tissue with 9 mL buffer, the dilution ratio is 10). The tissue homogenate was kept at −60° C. or lower until LC-MS/MS analysis.
The concentrations of TEST COMPOUND in plasma and brain were determined by using an LC-MS/MS method.
The plasma and brain concentration of TEST COMPOUND in study animals was subjected to a non-compartmental pharmacokinetic analysis by using the Phoenix WinNonlin software program (version 6.3 or above, Pharsight). The linear/log trapezoidal rule was applied in obtaining the PK parameters.
Individual plasma and brain concentration values that were below the lower limit of quantitation (LLOQ) were excluded from the PK parameter calculation. The nominal dose levels and nominal sampling times were used in the calculation of all pharmacokinetic parameters.
Mouse Kp, uu=(% free in mouse brain*concentration in mouse brain)/(% free in mouse plasma*concentration in mouse plasma)
The dialysis apparatus was assembled according to the manufacturer's instruction. Each Cell was filled with 120 μL of spiked plasma sample and dialyzed against equal volume of dialysis buffer (PBS). The assay was performed in duplicate. The dialysis plates were sealed and incubated in an incubator at 37° C. with 5% CO2 and rotated at 100 rpm for 6 hours. At the end of incubation, the seals were removed and 50 μL of samples from both buffer and plasma chambers were transferred to a 96-well plate.
All calculations were carried out using Microsoft Excel. The concentrations of test compound and control compound in the buffer and plasma chambers were determined from peak area ratios (PAR) of analyte to internal standard. Protein binding (% unbound and % bound) and recovery (% recovery) of test and control compounds was calculated as follows:
• 1. Thawing of the frozen brain (stored at −80° C.) • Frozen brain tissue was thawed at room temperature in a bath. Only brain tissue was used that was thawed no more than once. • 2. Preparation of brain tissue homogenate • Brain tissue homogenate was prepared by diluting one quantity (g) of the whole brain tissue with three volumes (mL) of buffer (PBS, pH 7.4) and homogenizing the mixture using a tissue homogenizer. Brain tissue homogenate was frozen at −80° C. for later use/comparison. • 3. Preparation of working solutions • The working solutions of test compound and the control compound propranolol were prepared in dimethyl sulfoxide (DMSO) at the concentration of 200 μM. […]
(In general: Equilibrium dialysis compares concentrations on both sides of a semipermeable membrane.)
Consider `Cc1n[nH]c2c1N=C(c1c(F)cccc1F)Nc1cc(F)c(N3CCOCC3)cc1-2` [Example 28, 4-[5-(2,6-difluorophenyl)-8-fluoro-3-methyl-1,6-dihydropyrazolo[4,3-d][1,3]benzodiazepine-9-yl]morpholine], for which the Kp uu is more than 0.4.

Take `Cc1n[nH]c2c1N=C(c1c(F)cccc1F)Nc1c-2cc(N2CC3(CCOCC3)C2)nc1C` [Example 47, 2-[8-(2,6-difluorophenyl)-5,11-dimethyl-3,4,7,9,12-pentazatricyclo[8.4.0.02,6]tetradeca-1(10),2(6),4,7,11,13-hexaen-13-yl]-7-oxa-2-azaspiro[3.5]nonane]: the Kp uu is 0.2 to 0.4. The value for `[2H]C([2H])([2H])c1n[nH]c2c1N=C(c1c(F)cccc1F)Nc1ccc(N3CCO[C@@H](C)C3)cc1-2` [Example 34, (2S)-4-[5-(2,6-difluorophenyl)-3-(trideuteriomethyl)-1,6-dihydropyrazolo[4,3-d][1,3]benzodiazepin-9-yl]-2-methyl-morpholine] was 0.2 to 0.4; that for `Cc1n[nH]c2c1N=C(c1c(F)cccc1F)Nc1ccc(N3CCO[C@@H](C)C3)cc1-2` [Example 26, (S)-4-(5-(2,6-difluorophenyl)-3-methyl-1,6-dihydrobenzo[d]pyrazolo[3,4-f][1,3]diazepin-9-yl)-2-methylmorpholine] was 0.2 to 0.4; that for `Cc1n[nH]c2c1N=C(c1c(F)cccc1F)Nc1c-2cc(N2CCN(CC(F)F)CC2)nc1C` [Example 19, 13-[4-(2,2-difluoroethyl)piperazin-1-yl]-8-(2,6-difluorophenyl)-5,11-dimethyl-3,4,7,9,12-pentazatricyclo[8.4.0.02,6]tetradeca-1(10),2(6),4,7,11,13-hexaene] was more than 0.4. The value for `Cc1n[nH]c2c1N=C(c1c(F)cccc1F)Nc1ccc(N3CCN(CCF)CC3)cc1-2` [Example 25, 5-(2,6-difluorophenyl)-9-[4-(2-fluoroethyl)piperazin-1-yl]-3-methyl-1,6-dihydropyrazolo[4,3-d][1,3]benzodiazepine] was 0.2 to 0.4; that for `Cc1n[nH]c2c1N=C(c1c(F)cccc1F)Nc1c-2cc(N2CCN(CC(C)(C)F)CC2)nc1C` [Example 5, 5-(2,6-difluorophenyl)-9-(4-(2-fluoro-2-methylpropyl)piperazin-1-yl)-3,7-dimethyl-1,6-dihydropyrazolo[4,3-d]pyrido[4,3-f][1,3]diazepine] was more than 0.4. The value for `[2H]C([2H])([2H])c1n[nH]c2c1N=C(c1c(F)cccc1F)Nc1cnc(N3CCOCC3)cc1-2` [Example 32, 4-[8-(2,6-difluorophenyl)-5-(trideuteriomethyl)-3,4,7,9,12-pentazatricyclo[8.4.0.02,6]tetradeca-1(10),2(6),4,7,11,13-hexaen-13-yl]morpholine] was 0.2 to 0.4; that for `Cc1n[nH]c2c1N=C(c1c(F)cccc1F)Nc1c-2cc(N2CCO[C@@H](C)C2)nc1C` [Example 40, (S)-4-(5-(2,6-difluorophenyl)-3,7-dimethyl-1,6-dihydropyrazolo[4,3-d]pyrido[4,3-f][1,3]diazepin-9-yl)-2-methylmorpholine] was less than 0.2. Turning to `Cn1nccc1-c1cc2c(cn1)NC(c1c(F)cccc1F)=Nc1c(Cl)n[nH]c1-2` [Example 59, 3-chloro-5-(2,6-difluorophenyl)-9-(1-methyl-1H-pyrazol-5-yl)-1,6-dihydropyrazolo[4,3-d]pyrido[4,3-f][1,3]diazepine], the Kp uu was less than 0.2. The value for `Cc1n[nH]c2c1N=C(c1c(F)cccc1F)Nc1c-2cc(N2CCN(CC(F)(F)F)CC2)nc1C` [Example 23, 5-(2,6-difluorophenyl)-3,7-dimethyl-9-(4-(2,2,2-trifluoroethyl)piperazin-1-yl)-1,6-dihydropyrazolo[4,3-d]pyrido[4,3-f][1,3]diazepine] was more than 0.4; that for `Cc1n[nH]c2c1N=C(c1c(F)cccc1F)Nc1cnc(-c3cnn(C(F)F)c3)cc1-2` [Example 1, 9-(1-(difluoromethyl)-1H-pyrazol-4-yl)-5-(2,6-difluorophenyl)-3-methyl-1,6-dihydropyrazolo[4,3-d]pyrido[4,3-f][1,3]diazepine] was 0.2 to 0.4.

For the compound `Cc1n[nH]c2c1N=C(c1c(F)cccc1F)Nc1ccc(N3CCO[C@H](C)C3)cc1-2` [Example 7, (R)-4-(5-(2,6-difluorophenyl)-3-methyl-1,6-dihydrobenzo[d]pyrazolo[3,4-f][1,3]diazepin-9-yl)-2-methylmorpholine], the Kp uu fell in the range of 0.2 to 0.4. The value for `Cc1n[nH]c2c1N=C(c1c(F)cccc1F)Nc1c-2cc(N2CCN(CCF)C[C@H]2C)nc1C` (single isomer, unassigned) [Example 18] was more than 0.4; that for `[2H]C1([2H])OC([2H])([2H])C([2H])([2H])N(c2ccc3c(c2)-c2[nH]nc(C)c2N=C(c2c(F)cccc2F)N3)C1([2H])[2H]` [Example 22, 2,2,3,3,5,5,6,6-octadeuterio-4-[5-(2,6-difluorophenyl)-3-methyl-1,6-dihydropyrazolo[4,3-d][1,3]benzodiazepin-9-yl]morpholine] was less than 0.2; that for `Cc1n[nH]c2c1N=C(c1c(F)cccc1F)N1CCc3nc(N4CCOCC4)cc-2c31` [Example 42, 4-[8-(2,6-difluorophenyl)-5-methyl-3,4,7,9,13-pentazatetracyclo[7.6.1.02,6.012,16]hexadeca-1(16),2(6),4,7,12,14-hexaen-14-yl]morpholine] was 0.2 to 0.4.

With `Cc1n[nH]c2c1N=C(c1c(F)cccc1F)Nc1c-2cc(N2CCN(CCF)CC2)nc1C` [Example 9, 8-(2,6-difluorophenyl)-13-[4-(2-fluoroethyl)piperazin-1-yl]-5,11-dimethyl-3,4,7,9,12-pentazatricyclo[8.4.0.02,6]tetradeca-1(10),2(6),4,7,11,13-hexaene], the Kp uu was more than 0.4. Then `CCc1n[nH]c2c1N=C(c1c(F)cccc1F)Nc1cnc(N3CCOCC3)cc1-2` [Example 31, 4-[8-(2,6-difluorophenyl)-5-ethyl-3,4,7,9,12-pentazatricyclo[8.4.0.02,6]tetradeca-1(10),2(6),4,7,11,13-hexaen-13-yl]morpholine], with 0.2 to 0.4; and `Cc1n[nH]c2c1N=C(c1c(F)cccc1F)Nc1c-2cc(N2CCOCC2)nc1C` [Example 8, 4-[8-(2,6-difluorophenyl)-5,11-dimethyl-3,4,7,9,12-pentazatricyclo[8.4.0.02,6]tetradeca-1(10),2(6),4,7,11,13-hexaen-13-yl]morpholine], with 0.2 to 0.4; and `Cc1n[nH]c2c1N=C(c1c(F)cccc1F)Nc1cnc(C#CC3(C)CCOCC3)cc1-2` [Example 17, 8-(2,6-difluorophenyl)-5-methyl-13-[2-(4-methyltetrahydropyran-4-yl)ethynyl]-3,4,7,9,12-pentazatricyclo[8.4.0.02,6]tetradeca-1(10),2(6),4,7,11,13-hexaene], with 0.2 to 0.4. The value for `Cc1n[nH]c2c1N=C(c1c(F)cccc1F)Nc1c(F)cc(N3CCOCC3)cc1-2` [Example 30, 4-(5-(2,6-difluorophenyl)-7-fluoro-3-methyl-1,6-dihydrobenzo[d]pyrazolo[3,4-f][1,3]diazepin-9-yl)morpholine] was more than 0.4. Then `Cc1n[nH]c2c1N=C(c1c(F)cccc1F)Nc1cnc(N3CCO[C@@H](C(F)(F)F)C3)cc1-2` [Example 55, (2R)-4-[8-(2,6-difluorophenyl)-5-methyl-3,4,7,9,12-pentazatricyclo[8.4.0.02,6]tetradeca-1(10),2(6),4,7,11,13-hexaen-13-yl]-2-(trifluoromethyl)morpholine], with less than 0.2.

On to `Fc1cccc(F)c1C1=Nc2c(C(F)F)n[nH]c2-c2cc(N3CCOCC3)ncc2N1` [Example 10, 4-[5-(difluoromethyl)-8-(2,6-difluorophenyl)-3,4,7,9,12-pentazatricyclo[8.4.0.02,6]tetradeca-1(10),2(6),4,7,11,13-hexaen-13-yl]morpholine], for which the Kp uu is less than 0.2.
